Results published in paper PMC5520057, “Modulation of nongenomic activation of PI3K signalling by tetramerization of N-terminally-cleaved RXRα” (Nature Communications, 2017).
Positions count from the first letter of the chain named. Where “and” joins values, the source holds several entries; their conditions need not be identical. Identical values can stand only once.

What was measured:
Myc-RXRα-LBD (human) = assay: cross-linking; cells (HepG2, HEK293T, MCF-7) transfected for 24 h, treated with 9-cis-RA (10^-7 M) and/or K-80003 (5 x 10^-6 M) for 6 h; lysates or fractions incubated with 1 mM BS3, SDS-PAGE and western blotting
tRXRα/R316E [1] = assay: Subcellular localization of tRXRα/R316E, immunostaining; type: cell-based; conditions: HEK293T cells; TNFα (10 ng ml^−1) for 30 min; confocal microscopy
Description: (§1) Cells mounted on glass slides or tumour tissue frozen sections (5-μm-thick) were washed with PBS and fixed in 4% paraformaldehyde (PFA) for 15 min and permeabilized with PBS containing 0.1% Triton X-100 for 15 min. Fixed cells or tumour tissues were blocked with 5 mg ml^−1 BSA in PBS for 30 min at room temperature, followed with incubation with primary antibodies for 3 h and secondary antibodies at room temperature for 1 h and co-stained with 4′6′-diamidino-2-phenylindole (DAPI) to visualize nuclei. The images were taken under an LSM-510 confocal laser scanning microscope system (Carl Zeiss).

RXRα [2] = assay: Subcellular localization of RXRα, immunostaining; type: cell-based; conditions: MCF-7 cells; TNFα (10 ng ml^−1) for 30 min; confocal microscopy
Description: as §1

tRXRα = assay: Subcellular localization of tRXRα, immunostaining; type: cell-based; conditions: MCF-7 cells cotransfected with p85α; TNFα (10 ng ml^−1) for 30 min; confocal microscopy
Description: as §1

[3] = system: p85α / tRXRα/R316E interaction; assay: coIP, p85α with tRXRα/R316E; type: cell-based; conditions: HEK293T cells; TNFα (10 ng ml^−1) or 9-cis-RA (10^−7 M) for 1 h; coIP anti-Myc
Description: (§4) For coIP assay[29], HEK293T cells grown in 10 cm dishes were transfected with various plasmids. Cells were lysed in 1 ml of lysis buffer (20 mM Tris (pH 7.5), 150 mM NaCl, 1% Triton X-100, 1 mM EDTA, 30 mM NaF, 2 mM sodium pyrophosphate) with a cocktail of proteinase inhibitors (Roche). Lysates were incubated with the appropriate antibody for 12 h at 4 °C and subsequently incubated with protein A-Sepharose beads for 1 h. The immunoprecipitates were collected and washed three times with lysis buffer. The protein–antibody complexes recovered on beads were subjected to immunoblotting using appropriate antibodies after separation by SDS-PAGE. Input represents 5% of cell lysates used for coIP assays.

p85α / tRXRα interaction = assay: coIP, p85α with tRXRα; type: cell-based; conditions: HEK293T cells; TNFα (10 ng ml^−1) for 1 h; coIP anti-Myc
Description: as §4

[4] = system: p85α-BCR / RXRα-LBD interaction; assay: coIP, p85α-BCR with RXRα-LBD; type: cell-based; conditions: 9-cis-RA (10^−7 M), one of two similar experiments
Description: (§2) For coIP assay, HEK293T cells grown in 10 cm dishes were transfected with various plasmids. Cells were lysed in 1 ml of lysis buffer (20 mM Tris (pH 7.5), 150 mM NaCl, 1% Triton X-100, 1 mM EDTA, 30 mM NaF, 2 mM sodium pyrophosphate) with a cocktail of proteinase inhibitors (Roche). Lysates were incubated with the appropriate antibody for 12 h at 4 °C and subsequently incubated with protein A-Sepharose beads for 1 h. The immunoprecipitates were collected and washed three times with lysis buffer. The protein–antibody complexes recovered on beads were subjected to immunoblotting using appropriate antibodies after separation by SDS-PAGE. Input represents 5% of cell lysates used for coIP assays.

[5] = system: RXRα-A/B / RXRα-LBD/W305Q interaction; assay: coIP, N/C interaction RXRα-A/B with RXRα-LBD/W305Q; type: cell-based; conditions: HEK293T cells; 9-cis-RA (10^−7 M)
Description: as §4

[6] = system: p85α / tRXRα/F313A interaction; assay: coIP, p85α with tRXRα/F313A; type: cell-based; conditions: HEK293T cells; 9-cis-RA (10^−7 M) for 1 h; coIP anti-Myc
Description: as §4

[7] = system: p85α-BCR / RXRα-LBD/W305Q interaction; conditions: HEK293T cells; with or without 9-cis-RA (10^−7 M)
Description: as §2

[8] = system: p85α-BCR / tRXRα interaction; assay: coIP, p85α-BCR with tRXRα; type: cell-based; conditions: 9-cis-RA (10^−7 M), one of two similar experiments
Description: as §4

RXRα-LBD = assay: BS3 crosslinking, transfected RXRα-LBD; type: cell-based; conditions: HepG2 cells; 9-cis-RA (10^−7 M) or K-80003 (5 × 10^−6 M) for 6 h; BS3 1 mM; western blotting
Description: (§3) Cell lysates were then prepared and incubated with bis[sulfosuccinimidyl] suberate (BS3, Pierce) dissolved in dimethyl sulfoxide to a final concentration of 1 mM. The reactions were stopped with protein gel loading buffer. Samples were resolved by SDS/PAGE in 8% acrylamide gels and protein bands were visualized by western blotting.

tRXRα/R316E [9] = assay: BS3 crosslinking, tRXRα/R316E; type: cell-based; conditions: MCF-7 cells, 9-cis-RA (10^−7 M) or K-80003 (5 × 10^−6 M) for 6 h
Description: as §3

[10] = system: RXRα-A/B / RXRα-LBD interaction; assay: coIP, N/C interaction RXRα-A/B with RXRα-LBD; type: cell-based; conditions: HepG2 cells, coIP with anti-HA antibody; one of two similar experiments
RXRα-LBD/R316E = assay: Non-denaturing gel electrophoresis, R316E mutant; type: biochemical, human; conditions: 9-cis-RA (0.5 μM) or K-80003 (20 μM), 3 h at 4 °C
Description: The human RXRα LBD (residues Thr223 to Thr462) cloned as an N-terminal histidine-tagged fusion protein in pET15b expression vector was expressed in Escherichia coli BL21 strain (Stratagene). After sonication, cell extract was incubated with the His60 Ni Superflow resin, and His-tagged RXRα-LBD-resin complexes were washed, eluted and concentrated to 5 mg ml^−1 for subsequent trails. For crystallization experiment, bovine thrombin (Sigma) was used to cleave the His tag from the purified His-tagged RXRα-LBD. The resulting His tag was removed on the Resource-Q column (GE) using 0.1–1 M NaCl gradient and the Tris-Cl pH 8 buffer. RXRα-LDB was further purified using gel filtration on a Superdex 200 2660 column (GE) pre-equilibrated with the 75 mM NaCl, 20 mM Tris-Cl buffer (pH 8).

RXRα [11] = system: RXRα; set-up: method as in PMID 10970886, PMID 9811539; conditions: cited from earlier work
Source text: In addition to acting as heterodimeric partners of some nuclear receptors, RXRα can form homodimers[18] that trigger specific signalling pathways. A unique property of RXRα is an auto-repressive mechanism involving homotetramerization, in which a ‘dimer-of-dimers’ pack in a bottom-to-bottom manner, with H12 from each monomer invading (and invaded by) a neighbouring domain across the tetramer interface. This pairwise ‘exchange of arms’ enables each monomer to bind to and occlude the coregulator-binding groove of its neighbour. Some molecules hav ...

[12] = system: p85α-ΔiSH2 / tRXRα interaction; assay: p85α-ΔiSH2 interaction with tRXRα; type: cell-based
Description: as §3

tRXRα/F313A = assay: BS3 crosslinking, tRXRα/F313A; type: cell-based; conditions: MCF-7 cells, 9-cis-RA (10^−7 M) or K-80003 (5 × 10^−6 M) for 6 h
Description: as §3

[13] = target: the molecule itself; assay: cross-linking; cells (HepG2, HEK293T, MCF-7) transfected for 24 h, treated with 9-cis-RA (10^-7 M) and/or K-80003 (5 x 10^-6 M) for 6 h; lysates or fractions incubated with 1 mM BS3, SDS-PAGE and western blotting
[14] = target: the molecule itself; assay: crystal structure; RXRα-LBD (0.35 mM) cocrystallized with K-80003, 2.6 Å; tetramer (dimer of dimers) with six K-80003 bound
[15] = target: the molecule itself; assay: native gel or EMSA; purified RXRα-LBD or mutant (0.2 μg/μl) incubated with DMSO, 9-cis-RA (0.5 μM) and/or K-80003 (20 μM) for 3 h at 4 °C; 8% non-denaturing PAGE, Coomassie staining

Myc-RXRα-LBD (domain or fragment)
stoichiometry N (Myc-RXRα-LBD (human)): 2 and 4

TNFα
colocalization of tRXRα/R316E with p85α (tRXRα/R316E [1]): lack of colocalization of the tRXRα/R316E mutant with p85α in the absence or presence of TNFα
effect on nuclear localization of RXRα (RXRα [2]): no effect on the nuclear localization of RXRα
tRXRα found in the cytoplasm of cells (tRXRα): > 65%
interaction of tRXRα/R316E with p85α [3]: could not bind to p85α either in the absence or presence of TNFα or 9-cis-RA
interaction of tRXRα with full-length p85α (p85α / tRXRα interaction): tRXRα interacted with the full-length p85α in the presence of TNFα

CC1=C(/C=C/C(C)=C\C=C\C(C)=C\C(=O)O)C(C)(C)CCC1 [9-cis-RA, 9-cis-retinoic acid]
effect on p85α-BCR interaction with RXRα-LBD [4]: enhancing effect of 9-cis-RA on p85α-BCR interaction
effect on RXRα-A/B / RXRα-LBD/W305Q interaction [5]: could still bind to the RXRα-A/B protein in a 9-cis-RA sensitive manner similar to the wild-type RXRα-LBD
interaction of tRXRα/F313A with p85α [6]: constitutive and 9-cis-RA-independent interaction with p85α
binding of RXRα-LBD/W305Q with p85α-BCR [7]: impaired the binding of RXRα-LBD with p85α-BCR either in the presence or absence of 9-cis-RA
effect on p85α-BCR interaction with tRXRα [8]: enhancing effect of 9-cis-RA on p85α-BCR interaction
crosslinked RXRα-LBD species (RXRα-LBD): only monomer and homodimer
oligomeric state of tRXRα/R316E (tRXRα/R316E [9]): strong tetrameric species of tRXRα/R316E but not tRXRα/F313A independent of the presence of 9-cis-RA or K-80003
effect on RXRα-A/B / RXRα-LBD interaction [10]: inhibited by 9-cis-RA in a dose-dependent manner
effect on oligomeric state of RXRα-LBD/R316E (RXRα-LBD/R316E): exhibited mainly as a tetramer independent of the presence of either 9-cis-RA or K-80003
effect on homotetramers (RXRα [11]): dissociation of homotetramers into homodimers
tRXRα interaction with p85α-ΔiSH2 with cotransfected RXRα-A/B ([12]; HEK293T cells, 9-cis-RA (10^−7 M) for 6 h, coIP anti-Myc): inhibited 9-cis-RA-induced interaction of tRXRα with p85α-ΔiSH2
interaction of tRXRα/R316E with p85α [3]: could not bind to p85α either in the absence or presence of TNFα or 9-cis-RA
oligomeric state of tRXRα/F313A (tRXRα/F313A): strong tetrameric species of tRXRα/R316E but not tRXRα/F313A independent of the presence of 9-cis-RA or K-80003

O=C(CCCCCCC(=O)ON1C(=O)CC(S(=O)(=O)O)C1=O)ON1C(=O)CC(S(=O)(=O)O)C1=O (stereo not shown) [BS3, bis[sulfosuccinimidyl] suberate]
9-cis-RA-induced tRXRα interaction with p85α-ΔiSH2 ([12]; HepG2 cells, K-80003 and/or 9-cis-RA, then BS3 crosslinking, western blotting): potently inhibited

B1: Myc-tRXRα (domain or fragment, human, UniProt P19793 81-462, looked up)
chain: TTPTLGFSTGSPQLSSPMNPVSSSEDIKPPLGLNGVLKVPAHPSGNMASFTKHICAICGDRSSGKHYGVYSCEGCKGFFKRTVRKDLTYTCRDNKDCLIDKRQRNRCQYCRYQKCLAMGMKREAVQEERQRGKDRNENEVESTSSANEDMPVERILEAELAVEPKTETYVEANMGLNPSSPNDPVTNICQAADKQLFTLVEWAKRIPHFSELPLDDQVILLRAGWNELLIASFSHRSIAVKDGILLATGLHVHRNSAHSAGVGAIFDRVLTELVSKMRDMQMDKTELGCLRAIVLFNPDSKGLSNPAEVEALREKVYASLEAYCKHKYPEQPGRFAKLLLRLPALRSIGLKCLEHLFFFKLIGDTPIDTFLMEMLEAPHQMT
notes: retinoid X receptor alpha lacking the N-terminal 80 amino acids (deletion of 60 plus an additional 20 amino acids); also called truncated RXRα; N-terminally-cleaved RXRα; source: HEK293T, HepG2, transfected, in lysate
stoichiometry N [13]: 4

B2: Myc-tRXRα/R316E (domain or fragment, human, UniProt P19793 81-462, looked up)
chain: B1 chain with R236E
notes: retinoid X receptor alpha lacking the N-terminal 80 amino acids; source: MCF-7, HEK293T, transfected, in lysate
stoichiometry N [13]: 4

B3: RXRα-LBD (His tag cleaved, for crystallization) (domain or fragment, human, UniProt P19793 223-462, looked up)
chain: TSSANEDMPVERILEAELAVEPKTETYVEANMGLNPSSPNDPVTNICQAADKQLFTLVEWAKRIPHFSELPLDDQVILLRAGWNELLIASFSHRSIAVKDGILLATGLHVHRNSAHSAGVGAIFDRVLTELVSKMRDMQMDKTELGCLRAIVLFNPDSKGLSNPAEVEALREKVYASLEAYCKHKYPEQPGRFAKLLLRLPALRSIGLKCLEHLFFFKLIGDTPIDTFLMEMLEAPHQMT
stoichiometry N [14]: 4

B4: His-RXRα-LBD/R316E (domain or fragment, human, UniProt P19793 223-462, looked up)
chain: B3 chain with R94E
notes: source: bacteria expressed, purified
stoichiometry N [15]: 4

B5: His-RXRα-LBD (domain or fragment, human, UniProt P19793 223-462, looked up)
chain: B3 chain
stoichiometry N [15]: 2 and 4
